Data on 2 compounds can be found in paper PMC8913746, “An open-like conformation of the sigma-1 receptor reveals its ligand entry pathway” (Nature Communications, 2022).

Where a chain is given by its changes, count along the chain named. Several values for one entry are separate records, joined by “and”; a condition that tells them apart may be missing. Equal entries are not always repeated.

For one data set, the target named is T1, xlσ1R-C179 (Xenopus laevis, UniProt Q6DCU6, L179C).
T1 construct: The gene encoding the full-length wild-type σ1R from Xenopus laevis; hemagglutinin signal peptide (N); decahistidine (His10) (N); TEV protease recognition site (N); made in house; host or cells: Pichia pastoris GS115
T1 sequence (Q6DCU6 1-221 L179C): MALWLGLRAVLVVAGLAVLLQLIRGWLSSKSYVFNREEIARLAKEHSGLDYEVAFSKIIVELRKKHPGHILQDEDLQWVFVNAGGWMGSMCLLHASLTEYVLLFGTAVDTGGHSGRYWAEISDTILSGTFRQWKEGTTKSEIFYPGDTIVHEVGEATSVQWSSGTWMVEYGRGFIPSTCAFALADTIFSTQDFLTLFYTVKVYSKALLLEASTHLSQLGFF
Put plainly: ITC binding of PRE084 to xlσ1R-C179 before/after mPEG-Mal-5K modification.

The next data set concerns the target T2, wild-type xls1R (Xenopus laevis, UniProt Q6DCU6).
T2 construct: The gene encoding the full-length wild-type σ1R from Xenopus laevis; hemagglutinin signal peptide (N); decahistidine (His10) (N); TEV protease recognition site (N); made in house; host or cells: Pichia pastoris GS115
T2 sequence (Q6DCU6 1-221): T1 sequence (Q6DCU6 1-221 L179C) with C179L
Put plainly: Resistance of wild-type xlσ1R to chymotrypsin with added PRE084 (SDS-PAGE). The data set is classed as biochemical. The conditions noted are these: 1 mM PRE084 added to dialyzed protein before chymotrypsin treatment.

The next data set has as its target T3, wild-type xlσ1R (Xenopus laevis, UniProt Q6DCU6).
T3 construct: The gene encoding the full-length wild-type σ1R from Xenopus laevis; hemagglutinin signal peptide (N); decahistidine (His10) (N); TEV protease recognition site (N); made in house; host or cells: Pichia pastoris GS115
T3 sequence (Q6DCU6 1-221): T1 sequence (Q6DCU6 1-221 L179C) with C179L
The experiment in a line: ITC binding of PRE084 to wild-type xlσ1R before/after mPEG-Mal-5K modification. As to conditions: for WT stoichiometry, After modification: mPEG-Mal-5K; for Kd: WT Kd.

Another data set has as its system xls1R-C179 or xls1R-C203. The experiment in a line: mPEG-Mal-5K modification of xlσ1R cysteine mutants with added PRE084 (SDS-PAGE). The conditions noted are these: 1 mM PRE084 added to dialyzed protein sample before mPEG-Mal-5K treatment. It is filed as biochemical, Xenopus laevis. As for the experimental part: Modification of wild-type and cysteine mutants of xlσ1R was performed with a bulky thiol-modifying reagent, methoxypolyethylene glycol maleimide 5000 (mPEG-Mal-5K)[33]. Briefly, the SEC-purified xlσ1R protein in the absence of β-mercaptoethanol were incubated with 1 mM mPEG-Mal-5K at room temperature for 1 h, and the modification reaction was stopped by addition of β-mercaptoethanol to a final concentration of 10 mM before another SEC purification to remove any free mPEG-Mal-5K. For the entrance blocking experiment, the modified xlσ1R-C179 or xlσ1R-C203 proteins were subjected to ITC or SDS-PAGE analysis. For the assessment of disulfide formation in xlσ1R-C179/C203, the modified sample was analyzed by SDS-PAGE. To reduce background modification and facilitate gel analysis, the only native cysteine (Cys91) was mutated to serine in all samples for the disulfide analysis. […]
would affect the modification efficiency (Response Fig. 1). However, extensive dialysis of the […]
1 to lane 5 for C179, and lane 3 to la ne 7 f o r C2 03). […]
modification efficiency (compare lane 1 to lane 2 for C179, and lane 3 to lane 4 for C203).
Therefore, it seems less likely that the ligand binding hindered mPEG -Ma l-5K modification. […]
before mPEG-Ma l-5K treatment were indicated above the gel. Protein samples were analyzed by SDS-PAGE and Coomassie blue staining. […]

A further data set addresses T4, xlσ1R-C203 (Xenopus laevis, UniProt Q6DCU6, Y203C).
T4 construct: The gene encoding the full-length wild-type σ1R from Xenopus laevis; hemagglutinin signal peptide (N); decahistidine (His10) (N); TEV protease recognition site (N); made in house; host or cells: Pichia pastoris GS115
T4 sequence (Q6DCU6 1-221 Y203C): T1 sequence (Q6DCU6 1-221 L179C) with C179L, Y203C
The experiment in a line: ITC binding of PRE084 to xlσ1R-C203 before/after mPEG-Mal-5K modification.

For the next data set, the target named is T5, xlσ1R-C179/C203 (Xenopus laevis, UniProt Q6DCU6, L179C/Y203C).
T5 construct: The gene encoding the full-length wild-type σ1R from Xenopus laevis; hemagglutinin signal peptide (N); decahistidine (His10) (N); TEV protease recognition site (N); made in house; host or cells: Pichia pastoris GS115
T5 sequence (Q6DCU6 1-221 L179C/Y203C): T1 sequence (Q6DCU6 1-221 L179C) with Y203C
Put plainly: ITC binding of PRE084 to xlσ1R-C179/C203 (disulfide oxidation / re-reduction).

Data set [1] in a line: Dissolution of DIM-3C for crystal soaking. It is filed as physicochemical. The conditions noted are these: for soaking xlσ1R crystals. The source says: Finally, it is worth mentioning another structural effort that we attempted to capture an open conformation of σ1R by soaking a ligand of extended length into the xlσ1R crystals. We anticipated that the ligand would extend through the ligand entrance and cause the receptor to adopt an open state. Such an extended ligand, N^1,N^3-bis(1-((R)-3-([1,1′-biphenyl]-4-yl)butyl)-piperidin-4-yl)malonamide (DIM-3C)[21], was kindly provided by Dr. Collina and Dr. Rossino for soaking the xlσ1R crystals. […] The density was readily and best modeled with an S1RA molecule. Its morpholine ring sits between α4 and α5 and is surrounded by residues 179, 203, and Leu97, whereas the rest of the ligand remains outside of the receptor, possibly representing an entering (or exiting) pose for the ligand. Meanwhile, due to the relatively low resolution (3.80 Å) of the xlσ1RC179/C203-S1RA structure, this extra density needs to be interpreted with caution, and we used it only for supplementary discussion.

The mark [2] stands for this setting: equilibrium dissociation constant (Kd).
Where [3] appears, read: ITC, Mean of repeats (source data Fig. 4e).
Setting [4] is: ITC, individual repeats (source data Fig. 4e).

As to `O=C(OCCN1CCOCC1)C1(c2ccccc2)CCCCC1` [PRE084, [2-(morpholin-4-yl)ethyl] 1-phenylcyclohexane-1-carboxylate], the Kd on xlσ1R-C179 (C179 Kd, After modification) was 1910 nM and 2010 nM and 1930 nM and 1970 nM; on xlσ1R-C179 (C179 Kd, Before modification), 972 nM and 990 nM and 1090 nM and 1040 nM; on xlσ1R-C179 (setting [2]), 1020 nM and 1950 nM; at wild-type xlσ1R (After modification) it was 1.22 µM and 1.29 µM and 1.23 µM and 1.08 µM (2×) and 1.12 µM; at wild-type xlσ1R (Before modification) it was 1120 nM and 1210 nM and 871 nM and 1100 nM; on xlσ1R-C203 (C203 Kd, After modification), 1500 nM and 1730 nM and 1620 nM. For the same compound, the Kd at xlσ1R-C203 (C203 Kd, Before modification) was 971 nM and 977 nM and 1030 nM; at xlσ1R-C203 (setting [2]), 1610 nM and 990 nM; on xlσ1R-C179/C203 (C179/C203 Kd, After oxidation), 7810 nM and 5080 nM and 7240 nM; at xlσ1R-C179/C203 (C179/C203 Kd, Before oxidation), 960 nM and 710 nM and 380 nM and 510 nM and 850 nM; at xlσ1R-C179/C203 (C179/C203 Kd, Re-reduction), 1760 nM and 1390 nM and 1450 nM and 1570 nM; on xlσ1R-C179/C203 (setting [2]) it was 680 nM and 6710 nM and 1540 nM. The “effect of added ligand on chymotrypsin digestion” value on wild-type xls1R is on record as “no appreciable effect”. Besides, the “change of affinity (Kd) after mPEG-Mal-5K treatment” value on wild-type xlσ1R is given as “changed little”. In addition, the “WT stoichiometry, Before modification” value at wild-type xlσ1R (setting [3]) is 0.8695; at wild-type xlσ1R (setting [4]) it was 0.883 and 0.874 and 0.993 and 0.728. Besides, the “WT stoichiometry, After modification” value on wild-type xlσ1R (setting [3]) is 0.9143; on wild-type xlσ1R (setting [4]) it was 0.933 and 0.896 and 0.874 and 1.040 and 0.883 and 0.860. Further, the “change of stoichiometry (number of available binding sites per protomer) after mPEG-Mal-5K treatment” value on wild-type xlσ1R (ITC, modification of native Cys91) is given as “changed little”. Further, the “effect of added ligand on mPEG-Mal-5K modification efficiency” value in the data set with xls1R-C179 or xls1R-C203 is listed as “no appreciable effect”. The “C203 stoichiometry, Before modification” value on xlσ1R-C203 (setting [3]) turned out to be 0.8717.
As to `C[C@H](CCN1CCC(NC(=O)CC(=O)NC2CCN(CC[C@@H](C)c3ccc(-c4ccccc4)cc3)CC2)CC1)c1ccc(-c2ccccc2)cc1` [DIM-3C, N^1,N^3-bis(1-((R)-3-([1,1′-biphenyl]-4-yl)butyl)-piperidin-4-yl)malonamide], the solubility result in data set [1] is “could only be dissolved with organic solvents such as methanol and dimethyl sulfoxide”.
